Data reported in ChEMBL document CHEMBL1697821, “Development of a phospholipidosis database and predictive quantitative structure-activity relationship (QSAR) models” (Toxicol Mech Methods, 2008).

Tested on: Phospholipidosis
Assay: Literature-mined public compounds from Kruhlak et al phospholipidosis modelling dataset

Compound	Phospholipidosis
OC(CCCN1CCCCC1)(c1ccccc1)c1ccccc1 [DIPHENIDOL]	Negative: based on the absence of positive reported data from WMDD
O=C(O)[C@H]1/C(=C/CO)O[C@@H]2CC(=O)N21 [CLAVULANIC ACID]	Negative: based on the absence of positive reported data from WMDD
CC1(C)S[C@@H]2[C@H](NC(=O)[C@H](NC(=O)N3CCN(S(C)(=O)=O)C3=O)c3ccccc3)C(=O)N2[C@H]1C(=O)O [MEZLOCILLIN]	Negative: based on the absence of positive reported data from WMDD
O=C(O)C1CSCN1 (stereo unspecified) [TIMONACIC]	Negative: based on the absence of positive reported data from WMDD
C[C@H]1O[C@@H](O[C@H]2[C@@H](O)C[C@H](O[C@H]3[C@@H](O)C[C@H](O[C@H]4CC[C@@]5(C)[C@H](CC[C@@H]6[C@@H]5C[C@@H](O)[C@]5(C)[C@@H](C7=CC(=O)OC7)CC[C@]65O)C4)O[C@@H]3C)O[C@@H]2C)C[C@H](O)[C@@H]1O [DIGOXIN]	Negative: based on the absence of positive reported data from WMDD
C=CCC1(C(C)CCC)C(=O)NC(=O)NC1=O (stereo unspecified) [SECOBARBITAL]	Negative: based on the absence of positive reported data from WMDD
CC(C)[N+](C)(CCOC(=O)C1c2ccccc2Oc2ccccc21)C(C)C.[Br-] [PROPANTHELINE BROMIDE]	Negative: based on the absence of positive reported data from WMDD
CCCCCCc1ccc(O)cc1O [HEXYLRESORCINOL]	Negative: based on the absence of positive reported data from WMDD
C[C@]12COC(=O)C[C@@H]1CC[C@@H]1[C@@H]2CC[C@@]2(C)[C@H]1CC[C@]2(C)O [OXANDROLONE]	Negative: based on the absence of positive reported data from WMDD
CN(C)CCCC1c2ccccc2Nc2ccc(Cl)cc21 (stereo unspecified) [CLOMACRAN]	Positive: strong inducer confirmed by electron microscopy
C#C[C@]1(O)CC[C@H]2[C@@H]3CCc4cc(O)ccc4[C@H]3CC[C@@]21C [ETHINYL ESTRADIOL]	Negative: based on the absence of positive reported data from WMDD
Cc1cn([C@H]2C[C@H](N=[N+]=[N-])[C@@H](CO)O2)c(=O)[nH]c1=O [ZIDOVUDINE]	Negative: confirmed by electron microscopy
OCCN1CCN(CCCN2c3ccccc3C=Cc3ccccc32)CC1 [OPIPRAMOL]	Negative: based on the absence of positive reported data from WMDD
CC(CN1c2ccccc2Sc2ccccc21)N(C)C (stereo unspecified) [PROMETHAZINE]	Positive: weak inducer based on presence of foamy macrophages and cytoplasmic vacuolations
CC(COc1ccccc1)NC(C)C(O)c1ccc(O)cc1 (stereo unspecified) [ISOXSUPRINE]	Negative: based on the absence of positive reported data from WMDD
C#CC(O)(/C=C/Cl)CC (stereo unspecified) [ETHCHLORVYNOL]	Negative: based on the absence of positive reported data from WMDD
CC1=CC(=O)c2ccccc2C1=O [MENADIONE]	Negative: confirmed by electron microscopy
CC[C@@H](C(N)=O)N1CCCC1=O	Negative: based on the absence of positive reported data from WMDD
Cc1cc(-c2ccc(/N=N/c3ccc4c(S(=O)(=O)[O-])cc(S(=O)(=O)[O-])c(N)c4c3O)c(C)c2)ccc1/N=N/c1ccc2c(S(=O)(=O)[O-])cc(S(=O)(=O)[O-])c(N)c2c1O.[Na+].[Na+].[Na+].[Na+] [EVANS BLUE]	Negative: based on the absence of positive reported data from WMDD

Compound	Phospholipidosis
CC(=O)O[C@H]1CC[C@@]2(C)C(=CC[C@@H]3[C@@H]2CC[C@]2(C)C(=O)CC[C@@H]32)C1 [DEHYDROEPIANDROSTERONE ACETATE]	Negative: based on the absence of positive reported data from WMDD
NCC(=O)O [GLYCINE]	Negative: based on the absence of positive reported data from WMDD
OC[C@H]1O[C@H](O[C@H]2[C@H](O)[C@@H](O)[C@H](O)O[C@@H]2CO)[C@H](O)[C@@H](O)[C@@H]1O [MALTOSE]	Negative: based on the absence of positive reported data from WMDD
Cn1c(=O)c2c(ncn2CC2OCCO2)n(C)c1=O [DOXOFYLLINE]	Negative: based on the absence of positive reported data from WMDD
CCN(CC)CCCC(C)Nc1c2ccc(Cl)cc2nc2ccc(OC)cc12 (stereo unspecified) [QUINACRINE]	Positive: strong inducer confirmed by electron microscopy
NC[C@@H]1O[C@H](O[C@H]2[C@@H](O)[C@H](O[C@@H]3[C@@H](O)[C@H](N)C[C@H](N)[C@H]3O[C@H]3O[C@H](CO)[C@@H](O)C[C@H]3N)O[C@@H]2CO)[C@H](N)[C@@H](O)[C@@H]1O[C@H]1O[C@H](CO)[C@@H](O)[C@H](O)[C@@H]1O [LIVIDOMYCIN]	Negative: based on the absence of positive reported data from WMDD
CN(C)CCCn1c2c(c3ccccc31)CCCCCC2 [IPRINDOLE]	Positive: strong inducer confirmed by electron microscopy
N=C(N)c1ccc(/C=C/c2ccc(C(=N)N)cc2)cc1 [STILBAMIDINE]	Positive: weak inducer based on presence of foamy macrophages and cytoplasmic vacuolations
CC1(O)CCC(C(C)(C)O)CC1.O (stereo unspecified) [TERPIN HYDRATE]	Negative: based on the absence of positive reported data from WMDD
COc1cc2nc(N3CCN(C(=O)C4CCCO4)CC3)nc(N)c2cc1OC (stereo unspecified) [TERAZOSIN]	Negative: based on the absence of positive reported data from WMDD
CN1[C@@H]2CC[C@H]1C[C@@H](OC(=O)C(CO)c1ccccc1)C2 (stereo partly specified) [ATROPINE]	Positive: weak inducer based on presence of foamy macrophages and cytoplasmic vacuolations
CC[C@]1(O)CC[C@H]2[C@@H]3CCC4=CCCC[C@@H]4[C@H]3CC[C@@]21C	Negative: based on the absence of positive reported data from WMDD
CN[C@@H]1[C@@H](O)[C@@H](O[C@@H]2[C@@H](O)[C@H](O[C@H]3O[C@H]([C@@H](C)NC)CC[C@H]3N)[C@@H](N)C[C@H]2N)OC[C@]1(C)O [GENTAMICIN C1]	Positive: strong inducer confirmed by electron microscopy
CN(C)CCc1c[nH]c2ccc(Cn3cncn3)cc12 [RIZATRIPTAN]	Negative: based on the absence of positive reported data from WMDD
CN(C)CCCN1c2ccccc2CCc2ccc(Cl)cc21 [CLOMIPRAMINE]	Positive: strong inducer confirmed by electron microscopy
Cc1cc(C)cc(OCC2CNC(=O)O2)c1 (stereo unspecified) [METAXALONE]	Negative: based on the absence of positive reported data from WMDD
O=C(Oc1ccccc1C(=O)O)c1ccccc1O [SALSALATE]	Negative: based on the absence of positive reported data from WMDD
CNS(=O)(=O)Cc1ccc2[nH]cc(CCN(C)C)c2c1	Negative: confirmed by electron microscopy
CCN(CC)Cc1cc(Nc2ccnc3cc(Cl)ccc23)ccc1O.Cl	Positive: weak inducer based on presence of foamy macrophages and cytoplasmic vacuolations

Compound	Phospholipidosis
CC[N+](CC)(CC)CCOc1cccc(OCC[N+](CC)(CC)CC)c1OCC[N+](CC)(CC)CC.[I-].[I-].[I-] [GALLAMINE TRIETHIODIDE]	Negative: based on the absence of positive reported data from WMDD
CCCNCCc1ccc(NS(=O)(=O)c2ccc(OC(F)(F)F)cc2)cc1	Positive: strong inducer confirmed by electron microscopy
Cc1c(-c2ccccc2)oc2c(C(=O)OCCN3CCCCC3)cccc2c1=O [FLAVOXATE]	Negative: based on the absence of positive reported data from WMDD
NC(=O)N1c2ccccc2C=Cc2ccccc21 [CARBAMAZEPINE]	Negative: confirmed by electron microscopy
CC(C)(N)Cc1ccccc1Cl [CLORTERMINE]	Negative: based on the absence of positive reported data from WMDD
CC(=O)O.C[C@H]1C[C@@H]2[C@H]([C@@H](O)C[C@@]3(C)[C@H]2CC[C@]3(O)C(=O)CO)[C@@]2(C)C=CC(=O)C=C12	Negative: based on the absence of positive reported data from WMDD
C[n+]1ccc(-c2cc[n+](C)cc2)cc1	Positive: strong inducer confirmed by electron microscopy
CN(CC(=O)N1CCOCC1)Cc1c(Cl)cccc1NC(=O)c1ccccc1 [FOMINOBEN]	Negative: based on the absence of positive reported data from WMDD
Oc1ncnc2[nH]ncc12 [ALLOPURINOL]	Positive: weak inducer based on presence of foamy macrophages and cytoplasmic vacuolations
CC[C@H]1OC(=O)[C@H](C)[C@@H](O[C@H]2C[C@@](C)(OC)[C@@H](O)[C@H](C)O2)[C@H](C)[C@@H](O[C@@H]2O[C@H](C)C[C@H](N(C)C)[C@H]2O)[C@](C)(OC)C[C@@H](C)C(=O)[C@H](C)[C@@H](O)[C@]1(C)O [CLARITHROMYCIN]	Negative: confirmed by electron microscopy
CC(CCCN(CCCl)CCCl)Nc1ccnc2cc(Cl)ccc12 (stereo unspecified) [CHLOROQUINE MUSTARD]	Positive: weak inducer based on presence of foamy macrophages and cytoplasmic vacuolations
COc1cccc2c1C(=O)c1c(O)c3c(c(O)c1C2=O)C[C@@](O)(/C(C)=N/NC(=O)c1ccccc1)C[C@@H]3O[C@H]1C[C@H](N)[C@H](O)[C@H](C)O1 [ZORUBICIN]	Negative: based on the absence of positive reported data from WMDD
CCC(Br)(CC)C(=O)NC(N)=O [CARBROMAL]	Negative: based on the absence of positive reported data from WMDD
CC(=O)Nc1ccc(OC(=O)c2ccccc2OC(C)=O)cc1 [BENORILATE]	Negative: based on the absence of positive reported data from WMDD
C[C@]12CC[C@H]3[C@@H](CC=C4C[C@@H](O)CC[C@@]43C)[C@@H]1CC[C@@H]2O [ANDROSTENEDIOL]	Negative: based on the absence of positive reported data from WMDD
CC(CCc1ccccc1)NCC(O)c1ccc(O)c(C(N)=O)c1 (stereo unspecified) [LABETALOL]	Positive: weak inducer based on presence of foamy macrophages and cytoplasmic vacuolations
Nc1ncnc2nc[nH]c12 [ADENINE]	Negative: based on the absence of positive reported data from WMDD
CO[C@@H]1[C@@H](OC(N)=O)[C@@H](O)[C@H](Oc2ccc3c(O)c(NC(=O)c4ccc(O)c(CC=C(C)C)c4)c(=O)oc3c2C)OC1(C)C [NOVOBIOCIN]	Negative: based on the absence of positive reported data from WMDD
